According to patent US11066396B2 (priority 2016, dated 2021):

Experiments:
[1] = target: HDAC8 (Homo sapiens (Human), UniProt Q9BY41); details: read-out: HDAC8 IC50
[2] = target: HDAC1 (Homo sapiens (Human), UniProt Q13547); details: read-out: HDAC1 IC50
Chain of HDAC1 (Q13547 whole entry): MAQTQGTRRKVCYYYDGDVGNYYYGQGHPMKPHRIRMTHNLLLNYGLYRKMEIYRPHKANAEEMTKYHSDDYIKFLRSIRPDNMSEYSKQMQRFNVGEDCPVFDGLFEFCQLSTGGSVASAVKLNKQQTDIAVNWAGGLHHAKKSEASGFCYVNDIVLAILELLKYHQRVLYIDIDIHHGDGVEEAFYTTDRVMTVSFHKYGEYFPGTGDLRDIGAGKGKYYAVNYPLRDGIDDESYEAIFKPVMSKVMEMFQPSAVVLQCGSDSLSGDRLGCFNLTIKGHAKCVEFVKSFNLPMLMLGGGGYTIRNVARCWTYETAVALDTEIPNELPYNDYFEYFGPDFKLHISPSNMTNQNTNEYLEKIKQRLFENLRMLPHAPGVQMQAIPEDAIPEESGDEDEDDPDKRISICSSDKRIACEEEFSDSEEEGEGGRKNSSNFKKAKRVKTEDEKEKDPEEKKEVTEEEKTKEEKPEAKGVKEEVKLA

Chain of HDAC8 (Q9BY41 whole entry): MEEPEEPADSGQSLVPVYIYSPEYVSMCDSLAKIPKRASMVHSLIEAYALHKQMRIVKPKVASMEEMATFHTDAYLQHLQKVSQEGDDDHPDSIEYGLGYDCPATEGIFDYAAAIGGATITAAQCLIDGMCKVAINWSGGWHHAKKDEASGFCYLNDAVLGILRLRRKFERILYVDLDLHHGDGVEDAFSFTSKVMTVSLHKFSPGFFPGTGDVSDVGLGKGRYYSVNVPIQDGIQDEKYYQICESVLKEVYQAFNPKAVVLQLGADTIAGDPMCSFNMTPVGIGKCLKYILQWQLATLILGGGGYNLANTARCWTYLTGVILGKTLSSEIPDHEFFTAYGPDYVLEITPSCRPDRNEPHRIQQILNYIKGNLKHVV

With CC(=O)N1CCN(CC(=O)N(Cc2ccc(-c3noc(C(F)(F)F)n3)cc2)c2cccc(C(F)(F)F)c2)CC1 [Example 69, 2-(4-acetylpiperazin-1-yl)-N-(4-(5-(trifluoromethyl)-1,2,4-oxadiazol-3-yl)benzyl)-N-(3-(trifluoromethyl)phenyl)acetamide] the IC50 [1] was 2600 nM and the IC50 [2] was 1300 nM.

For O=C(Cn1ncccc1=O)N(Cc1ccc(-c2noc(C(F)(F)F)n2)cc1)c1cccc(C(F)(F)F)c1 [Example 70, 2-(6-oxopyridazin-1(6H)-yl)-N-(4-(5-(trifluoromethyl)-1,2,4-oxadiazol-3-yl)benzyl)-N-(3-(trifluoromethyl)phenyl)acetamide], the IC50 [1] was 2200 nM and the IC50 [2] was 960 nM.

For O=C(c1cncnc1)N(Cc1ccc(-c2noc(C(F)(F)F)n2)cc1)c1cccc(C(F)(F)F)c1 [Example 71, N-(4-(5-(trifluoromethyl)-1,2,4-oxadiazol-3-yl)benzyl)-N-(3-(trifluoromethyl)phenyl)pyrimidine-5-carboxamide], the IC50 [1] was 2800 nM and the IC50 [2] was 670 nM.

O=C(CCCn1cncn1)N(Cc1ccc(-c2noc(C(F)(F)F)n2)cc1)c1cccc(C(F)(F)F)c1 [Example 72, 4-(1H-1,2,4-triazol-1-yl)-N-(4-(5-(trifluoromethyl)-1,2,4-oxadiazol-3-yl)benzyl)-N-(3-(trifluoromethyl)phenyl)butanamide] was tested, and the IC50 [1] was 2000 nM and the IC50 [2] was 1900 nM.

Compound Cc1nnc(CC(=O)N(Cc2ccc(-c3noc(C(F)(F)F)n3)cc2)c2cccc(C(F)(F)F)c2)n1C [Example 75, 2-(4,5-dimethyl-4H-1,2,4-triazol-3-yl)-N-(4-(5-(trifluoromethyl)-1,2,4-oxadiazol-3-yl)benzyl)-N-(3-(trifluoromethyl)phenyl)acetamide] has an IC50 [1] of 2300 nM and an IC50 [2] of 860 nM.

O=C(Cn1ccnn1)N(Cc1ccc(-c2noc(C(F)(F)F)n2)cc1)c1cccc(C(F)(F)F)c1 [Example 76, 2-(1H-1,2,3-triazol-1-yl)-N-(4-(5-(trifluoromethyl)-1,2,4-oxadiazol-3-yl)benzyl)-N-(3-(trifluoromethyl)phenyl)acetamide] showed an IC50 [1] of 2100 nM and an IC50 [2] of 1000 nM.

In the case of Cc1nc(C)n(CC(=O)N(Cc2ccc(-c3noc(C(F)(F)F)n3)cc2)c2cccc(C(F)(F)F)c2)n1 [Example 77, 2-(3,5-dimethyl-1H-1,2,4-triazol-1-yl)-N-(4-(5-(trifluoromethyl)-1,2,4-oxadiazol-3-yl)benzyl)-N-(3-(trifluoromethyl)phenyl)acetamide], the IC50 [1] is reported as 3300 nM and the IC50 [2] is reported as 1400 nM.

Work on CC(=O)NCCC(=O)N(Cc1ccc(-c2noc(C(F)(F)F)n2)cc1)c1cccc(C(F)(F)F)c1 [Example 78, 3-acetamido-N-(4-(5-(trifluoromethyl)-1,2,4-oxadiazol-3-yl)benzyl)-N-(3-(trifluoromethyl)phenyl)propanamide] yielded an IC50 [1] of 2300 nM and an IC50 [2] of 890 nM.

Work on O=C(CC1COC1)N(Cc1ccc(-c2noc(C(F)(F)F)n2)cc1)c1cccc(C(F)(F)F)c1 [Example 80, 2-(oxetan-3-yl)-N-(4-(5-(trifluoromethyl)-1,2,4-oxadiazol-3-yl)benzyl)-N-(3-(trifluoromethyl)phenyl)acetamide] yielded an IC50 [1] of 2800 nM and an IC50 [2] of 1600 nM.

With O=C(CN1CCS(=O)(=O)CC1)N(Cc1ccc(-c2noc(C(F)(F)F)n2)cc1)c1cccc(C(F)(F)F)c1 [Example 81, 2-(1,1-dioxidothiomorpholino)-N-(4-(5-(trifluoromethyl)-1,2,4-oxadiazol-3-yl)benzyl)-N-(3-(trifluoromethyl)phenyl)acetamide] the IC50 [1] was 4900 nM and the IC50 [2] was 1300 nM.

For CN(C)CC(=O)N(Cc1ccc(-c2noc(C(F)(F)F)n2)cc1)c1cccc(C(F)(F)F)c1 [Example 83, 2-(dimethylamino)-N-(4-(5-(trifluoromethyl)-1,2,4-oxadiazol-3-yl)benzyl)-N-(3-(trifluoromethyl)phenyl)acetamide], the IC50 [1] was 3500 nM and the IC50 [2] was 1200 nM.

For O=C(C1CCOCC1)N(Cc1ccc(-c2noc(C(F)(F)F)n2)cc1)c1cccc(C(F)(F)F)c1 [Example 85, N-(4-(5-(trifluoromethyl)-1,2,4-oxadiazol-3-yl)benzyl)-N-(3-(trifluoromethyl)phenyl)tetrahydro-2H-pyran-4-carboxamide], the IC50 [1] was 2300 nM and the IC50 [2] was 1200 nM.

Compound COCCn1nc(C(=O)N(Cc2ccc(-c3noc(C(F)(F)F)n3)cc2)c2cccc(C(F)(F)F)c2)ccc1=O [Example 86, 1-(2-methoxyethyl)-6-oxo-N-(4-(5-(trifluoromethyl)-1,2,4-oxadiazol-3-yl)benzyl)-N-(3-(trifluoromethyl)phenyl)-1,6-dihydropyridazine-3-carboxamide] has an IC50 [1] of 3300 nM and an IC50 [2] of 1200 nM.

Cn1nc(C(=O)N(Cc2ccc(-c3noc(C(F)(F)F)n3)cc2)c2cccc(C(F)(F)F)c2)ccc1=O [Example 88, 1-methyl-6-oxo-N-(4-(5-(trifluoromethyl)-1,2,4-oxadiazol-3-yl)benzyl)-N-(3-(trifluoromethyl)phenyl)-1,6-dihydropyridazine-3-carboxamide] showed an IC50 [1] of 3000 nM and an IC50 [2] of 940 nM.

O=C(CCn1cncn1)N(Cc1ccc(-c2noc(C(F)(F)F)n2)cc1)c1cccc(C(F)(F)F)c1 [Example 89, 3-(1H-1,2,4-triazol-1-yl)-N-(4-(5-(trifluoromethyl)-1,2,4-oxadiazol-3-yl)benzyl)-N-(3-(trifluoromethyl)phenyl)propanamide] showed an IC50 [1] of 2000 nM and an IC50 [2] of 1100 nM.

For CC(C)C(=O)N1CCC(C(=O)N(Cc2ccc(-c3noc(C(F)(F)F)n3)cc2)c2cccc(C(F)(F)F)c2)CC1 [Example 90, 1-isobutyryl-N-(4-(5-(trifluoromethyl)-1,2,4-oxadiazol-3-yl)benzyl)-N-(3-(trifluoromethyl)phenyl)piperidine-4-carboxamide], the IC50 [1] was 2500 nM and the IC50 [2] was 1400 nM.

With CC(C)(C)OC(=O)N(Cc1ccc(-c2noc(C(F)(F)F)n2)cn1)c1cccc(F)c1 [Example 91, tert-butyl (3-fluorophenyl)((5-(5-(trifluoromethyl)-1,2,4-oxadiazol-3-yl)pyridin-2-yl)methyl)carbamate] the IC50 [1] was 19000 nM and the IC50 [2] was 1300 nM.

CN1CCN(CC(=O)N(Cc2ccc(-c3noc(C(F)(F)F)n3)cc2)c2cccc(C(F)(F)F)c2)CC1 [Example 93, 2-(4-methylpiperazin-1-yl)-N-(4-(5-(trifluoromethyl)-1,2,4-oxadiazol-3-yl)benzyl)-N-(3-(trifluoromethyl)phenyl)acetamide] showed an IC50 [1] of 2200 nM and an IC50 [2] of 990 nM.

For O=C(Cc1cnccn1)N(Cc1ccc(-c2noc(C(F)(F)F)n2)cc1)c1cccc(C(F)(F)F)c1 [Example 94, 2-(pyrazin-2-yl)-N-(4-(5-(trifluoromethyl)-1,2,4-oxadiazol-3-yl)benzyl)-N-(3-(trifluoromethyl)phenyl)acetamide], the IC50 [1] was 2300 nM and the IC50 [2] was 1400 nM.

Compound Cn1ccc(CN(Cc2ccc(-c3noc(C(F)(F)F)n3)cc2)c2cccc(C(F)(F)F)c2)n1 [Example 96, N-((1-methyl-1H-pyrazol-3-yl)methyl)-3-(trifluoromethyl)-N-(4-(5-(trifluoromethyl)-1,2,4-oxadiazol-3-yl)benzyl)aniline] has an IC50 [1] of 30000 nM and an IC50 [2] of 2400 nM.

In the case of O=C(Cn1cnc2ccccc21)N(Cc1ccc(-c2noc(C(F)(F)F)n2)cc1)c1cccc(C(F)(F)F)c1 [Example 98, 2-(1H-benzo[d]imidazol-1-yl)-N-(4-(5-(trifluoromethyl)-1,2,4-oxadiazol-3-yl)benzyl)-N-(3-(trifluoromethyl)phenyl)acetamide], the IC50 [1] is reported as 2300 nM and the IC50 [2] is reported as 4200 nM.

Cc1nc2ccc(F)cc2n1Cc1ccc(-c2noc(C(F)(F)F)n2)cc1F [Example 99, 3-(3-fluoro-4-((6-fluoro-2-methyl-1H-benzo[d]imidazol-1-yl)methyl)phenyl)-5-(trifluoromethyl)-1,2,4-oxadiazole] showed an IC50 [1] of 5900 nM and an IC50 [2] of 1900 nM.

CN(C)c1cccc(COc2cc(-c3noc(C(F)(F)F)n3)ccn2)n1 [Example 101, N,N-dimethyl-6-(((4-(5-(trifluoromethyl)-1,2,4-oxadiazol-3-yl)pyridin-2-yl)oxy)methyl)pyridin-2-amine] was tested, and the IC50 [1] was 17000 nM and the IC50 [2] was 20000 nM.

O=C1CC[C@@H](c2nc3ccccc3o2)N1c1ccc(-c2noc(C(F)(F)F)n2)cc1 [Example 104, (S)-5-(benzo[d]oxazol-2-yl)-1-(4-(5-(trifluoromethyl)-1,2,4-oxadiazol-3-yl)phenyl)pyrrolidin-2-one] was tested, and the IC50 [1] was 440 nM and the IC50 [2] was 120 nM.

Cn1c([C@@H]2CCC(=O)N2c2ccc(-c3noc(C(F)(F)F)n3)cc2F)nc2ccccc21 [Example 107, (S)-1-(2-fluoro-4-(5-(trifluoromethyl)-1,2,4-oxadiazol-3-yl)phenyl)-5-(1-methyl-1H-benzo[d]imidazol-2-yl)pyrrolidin-2-one] showed an IC50 [1] of 2200 nM and an IC50 [2] of 300 nM.

For CNc1ccccc1NC(=O)[C@@H]1CCC(=O)N1c1ccc(-c2noc(C(F)(F)F)n2)cc1 [Example 109, (S)-N-(2-(methylamino)phenyl)-5-oxo-1-(4-(5-(trifluoromethyl)-1,2,4-oxadiazol-3-yl)phenyl)pyrrolidine-2-carboxamide], the IC50 [1] was 2300 nM and the IC50 [2] was 1000 nM.

Work on O=C1CC[C@@H](c2nc(-c3cccnc3)no2)N1c1ccc(-c2noc(C(F)(F)F)n2)cc1 [Example 113, (S)-5-(3-(pyridin-3-yl)-1,2,4-oxadiazol-5-yl)-1-(4-(5-(trifluoromethyl)-1,2,4-oxadiazol-3-yl)phenyl)pyrrolidin-2-one] yielded an IC50 [1] of 410 nM and an IC50 [2] of 130 nM.

O=C1CC[C@@H](c2nc(-c3ccncc3)no2)N1c1ccc(-c2noc(C(F)(F)F)n2)cc1 [Example 114, (S)-5-(3-(pyridin-4-yl)-1,2,4-oxadiazol-5-yl)-1-(4-(5-(trifluoromethyl)-1,2,4-oxadiazol-3-yl)phenyl)pyrrolidin-2-one] showed an IC50 [1] of 270 nM and an IC50 [2] of 82 nM.

In the case of O=C1CCC(c2ccccc2)N1c1ccc(-c2noc(C(F)(F)F)n2)cc1 (stereo not shown) [Example 115, 5-phenyl-1-(4-(5-(trifluoromethyl)-1,2,4-oxadiazol-3-yl)phenyl)pyrrolidin-2-one], the IC50 [1] is reported as 920 nM and the IC50 [2] is reported as 1000 nM.
